{"source": "ChEMBL document CHEMBL4616595", "about": "“Targeted suppression of metastasis regulatory transcription factor SOX2 in various cancer cell lines using a sequence-specific designer pyrrole-imidazole polyamide” (Bioorg Med Chem, 2020)", "key": {"[1]": {"system": "SOX2 promoter DNA", "assay": "Binding affinity to SOX2 promoter 5'-CTTTGTT-3' DNA in human SW620 cells assessed as down regulation of stemness associated PTCH1 mRNA expression at 2 uM incubated for 48 hrs by qRT-PCR analysis", "assay_type": "cell-based", "details": "SW-620"}, "[2]": {"system": "SW-620", "assay": "Cytotoxicity against human SW620 cells assessed as reduction in cell viability incubated for 48 hrs by MTT assay", "assay_type": "functional, cell-based"}, "[3]": {"system": "SW-620", "assay": "Up regulation of p27kip1 mRNA expression in human SW620 cells incubated for 48 hrs by qRT-PCR analysis", "assay_type": "functional, cell-based"}, "[4]": {"system": "SW-620", "assay": "Antiinvasive activity in human SW620 cells assessed as reduction in cell invasion at 5 uM incubated for 72 hrs by crystal violet staining based assay relative to untreated control", "assay_type": "functional"}, "[5]": {"system": "SOX2 promoter DNA", "assay": "Binding affinity to SOX2 promoter 5'-CTTTGTT-3' DNA in human SW620 cells assessed as reduction in SOX2 protein level by measuring SOX2 level at 2 uM incubated for 48 hrs by immunostaining based FACS analysis (reference value: 55.9%)", "assay_type": "cell-based", "set-up": "scale not given: the % may be the effect or the level left", "details": "SW-620"}, "[6]": {"system": "SOX2 promoter DNA", "assay": "Binding affinity to SOX2 promoter 5'-CTTTGTT-3' DNA in human SW620 cells assessed as down regulation of CDC42 mRNA expression incubated for 48 hrs by qRT-PCR analysis", "assay_type": "cell-based", "details": "SW-620"}, "[7]": {"system": "B16-F10", "assay": "Anti-metastasis activity in mouse B16/F10 cells implanted in C57BL/6N mouse assessed as reduction in lung metastatic nodules at 1 mg/kg ip dosed every third day and measured on day 21 relative to untreated control", "assay_type": "functional"}, "[8]": {"system": "SOX2 promoter DNA", "assay": "Binding affinity to SOX2 promoter 5'-CTTTGTT-3' DNA in mouse Hepa1 cells assessed as reduction in SOX2 mRNA expression incubated for 48 hrs by qRT-PCR analysis", "assay_type": "cell-based"}, "[9]": {"system": "SOX2 promoter DNA", "assay": "Binding affinity to SOX2 promoter 5'-CTTTGTT-3' DNA in human SW620 cells assessed as down regulation of GRB2 mRNA expression incubated for 48 hrs by qRT-PCR analysis", "assay_type": "cell-based", "details": "SW-620"}, "[10]": {"system": "SW-620", "assay": "Up regulation of FASL mRNA expression in human SW620 cells incubated for 48 hrs by qRT-PCR analysis", "assay_type": "functional, cell-based"}, "[11]": {"system": "MCF7", "assay": "Antiproliferative activity against human MCF7 cells assessed as inhibition of cell proliferation incubated for 48 hrs by [3H]thymidine incorporation based scintillation counting method", "assay_type": "functional"}, "[12]": {"system": "MKN-45", "assay": "Cell cycle arrest in human MKN45 cells assessed as reduction in accumulation at S phase at 2 uM to 5 uM after 48 hrs by propidium iodide staining based flow cytometry analysis", "assay_type": "functional"}, "[13]": {"system": "SW-620", "assay": "Up regulation of p21cip1 mRNA expression in human SW620 cells incubated for 48 hrs by qRT-PCR analysis", "assay_type": "functional, cell-based"}, "[14]": {"system": "SOX2 promoter DNA", "assay": "Binding affinity to SOX2 promoter 5'-CTTTGTT-3' DNA in human SW620 cells assessed as down regulation of GLI3 gene expression at 2 uM incubated for 48 hrs by Cy3-labelled cRNA-based microarray analysis", "assay_type": "cell-based", "details": "SW-620"}, "[15]": {"system": "SOX2 promoter DNA", "assay": "Binding affinity to SOX2 promoter 5'-CTTTGTT-3' DNA in human SW620 cells assessed as reduction in SOX2 protein level incubated for 48 hrs by immunostaining based FACS analysis", "assay_type": "cell-based", "details": "SW-620"}, "[16]": {"system": "SOX2 promoter DNA", "assay": "Binding affinity to SOX2 promoter 5'-CTTTGTT-3' DNA in human MKN45 cells assessed as reduction in SOX2 protein level incubated for 48 hrs by immunostaining based FACS analysis", "assay_type": "cell-based", "details": "MKN-45"}}, "note": "Activity calls are given as the source filed them. The rule behind the calls is not given here.", "data": [{"smiles": "CC(=O)Nc1cc(C(=O)Nc2cc(C(=O)Nc3cc(C(=O)NCCC(=O)Nc4cn(C)c(C(=O)Nc5cc(C(=O)NCCCC(=O)Nc6cc(C(=O)Nc7cc(C(=O)NCCC(=O)Nc8cc(C(=O)Nc9cc(C(=O)Nc%10cn(C)c(C(=O)NCCCN(C)C)n%10)n(C)c9)n(C)c8)n(C)c7)n(C)c6)n(C)c5)n4)n(C)c3)n(C)c2)n(C)c1", "values": [{"measurement": "Activity", "setting": "[1]", "result": "Active"}, {"measurement": "Activity", "setting": "[2]", "result": "Dose-dependent effect"}, {"measurement": "Activity", "setting": "[3]", "result": "Active"}, {"measurement": "fold change (FC)", "setting": "[4]", "result": 4}, {"measurement": "Activity", "setting": "[5]", "result": 37.4, "unit": "%"}, {"measurement": "Activity", "setting": "[6]", "result": "Active"}, {"measurement": "fold change (FC)", "setting": "[7]", "result": 4}, {"measurement": "Activity", "setting": "[8]", "result": "Active"}, {"measurement": "Activity", "setting": "[9]", "result": "Active"}, {"measurement": "Activity", "setting": "[10]", "result": "Active"}, {"measurement": "inhibition", "setting": "[11]", "result": "Dose-dependent effect"}, {"measurement": "Activity", "setting": "[12]", "result": "Active"}, {"measurement": "Activity", "setting": "[13]", "result": "Active"}, {"measurement": "Activity", "setting": "[14]", "result": "Active"}, {"measurement": "Activity", "setting": "[15]", "result": "Dose-dependent effect"}, {"measurement": "Activity", "setting": "[16]", "result": "Dose-dependent effect"}]}]}
